US20100184596A1, “METHOD FOR THE CONTROL OF WEEDS IN TURF” (SYNGENTA CROP PROTECTION, INC., priority 2007, published 2010)

What was measured:
Assay type in all cases: in vivo
[1] = test system: Hydrocotyle sp. (dollarweed); assay: Weed control in combination with safeners, post emergence spray, in St. Augustinegrass v. Delmar (Table B7.1); details: no safener, 100 g ai/ha
Procedure: The weed control efficacy of the compound of formula I in combination with various safeners was tested. The combinations were applied by post emergence spray application. Percentage weed control assessments were taken at various timepoints.

[2] = test system: Hydrocotyle sp. (dollarweed); assay: Weed control via post emergence spray, in St. Augustinegrass v. Floratam (Table B5.3)
Procedure: (§1) The weed control efficacy of the compound of formula I was tested. The compound was applied via post emergence spray to a range of weeds, at various rates and spray treatment treatment regimes. Percentage weed control assessments were taken at various timepoints.

[3] = test system: turfgrass; assay: Example B4, conclusion in words; details: in combination with a safener
Procedure: The phytotoxicity to turfgrass of the compound of formula I in combination with various safeners was tested. The combinations were applied by post emergence spray application. Percentage phytotoxicity assessments were taken at various timepoints. The safeners tested in these trials were cloquintocet-mexyl, cyprosulfamide, a compound of formula 2.3, and isoxadifen-ethyl.

[4] = test system: Tall fescue v. Coronado; assay: Phytotoxicity via granule application, various inert granules (Table B3.3); details: 8 DAT
Procedure: The phytotoxicity of the compound of formula I to turfgrass species was tested. The compound was applied by distribution of granule formulations of formula I, post emergence, to turfgrass species at two rates. All treatments were watered-in 1 day after application. Percentage phytotoxicity assessments were taken at various timepoints.
In Tables B3.3 and B3.4, the granular formulations tested were made by spraying the compound of formula I onto various inert granules. In each of these trials, the granule formulations were tested at a higher rate than the corresponding spray application

[5] = test system: St. Augustinegrass; assay: Phytotoxicity via post emergence spray application (Table B2.1)
Procedure: (§2) The phytotoxicity of the compound of formula I to turfgrass species was tested. The compound was applied via post emergence spray to a range of warm and cool season turfgrass species at various rates and spray treatment treatment regimes. Percentage phytotoxicity assessments were taken at various timepoints.

[6] = test system: Richardia scabra (Florida Pusley); assay: Weed control via post emergence spray, in common centipedegrass (Table B5.2)
Procedure: as §1

[7] = test system: Kentucky bluegrass (3D blend); assay: Phytotoxicity via post emergence spray application (Table B2.6); details: 1 appl
Procedure: as §2

## COCCOCc1nc(C(F)(F)F)ccc1C(=O)C1=C(O)C2CCC(C2)C1=O (centres unmarked) [Formula I, 4-Hydroxy-3-[2-(2-methoxyethoxymethyl)-6-trifluoromethylpyridine-3-carbonyl]-bicyclo[3.2.1]oct-3-en-2-one]
[1]; 7 DAT
  % control: 41.70%
[1]; 11 DAT
  % control: 61.70%
[1]; 18 DAT
  % control: 61.70%
[2]; 1 appl, 140 g ai/ha, 5 DAT
  % control: 10.00%
[2]; 1 appl, 140 g ai/ha, 13 DAT
  % control: 60.00%
[2]; 1 appl, 140 g ai/ha, 21 DAT
  % control: 50.00%
[2]; 1 appl, 280 g ai/ha, 5 DAT
  % control: 15.00%
[2]; 1 appl, 280 g ai/ha, 13 DAT
  % control: 57.50%
[2]; 1 appl, 280 g ai/ha, 21 DAT
  % control: 60.00%
[2]; 2 appl, 140 g ai/ha, 5 DAT
  % control: 15.00%
[2]; 2 appl, 140 g ai/ha, 13 DAT
  % control: 55.00%
[2]; 2 appl, 140 g ai/ha, 21 DAT
  % control: 52.50%
[2]; 2 appl, 280 g ai/ha, 5 DAT
  % control: 20.00%
[2]; 2 appl, 280 g ai/ha, 13 DAT
  % control: 65.00%
[2]; 2 appl, 280 g ai/ha, 21 DAT
  % control: 62.50%
[3]
  phytotoxicity in combination with a safener, in words: reduces the level of phytotoxicity to turfgrass
[4]; Agsorb LUM GA granule, 680 g ai/ha
  % phytotoxicity: 23.8%
[4]; Agsorb LUM MS granule, 680 g ai/ha
  % phytotoxicity: 9.3%
[4]; Agsorb RUM GA granule, 680 g ai/ha
  % phytotoxicity: 18.8%
[4]; Bio Dac granule, 680 g ai/ha
  % phytotoxicity: 13.8%
[4]; DG Lite granule, 680 g ai/ha
  % phytotoxicity: 20.0%
[4]; Eco Gran granule, 680 g ai/ha
  % phytotoxicity: 20.0%
[4]; Non dispersing extruded granules, 680 g ai/ha
  % phytotoxicity: 21.3%
[4]; Oil dry granule, 680 g ai/ha
  % phytotoxicity: 12.5%
[4]; Spray, 340 g ai/ha
  % phytotoxicity: 18.8%
[5]; 1 appl, 140 g ai/ha, 8 DAT
  % phytotoxicity: 36.67%
[5]; 1 appl, 140 g ai/ha, 14 DAT
  % phytotoxicity: 28.33%
[5]; 1 appl, 140 g ai/ha, 29 DAT
  % phytotoxicity: 0.00%
[5]; 1 appl, 140 g ai/ha, 35 DAT
  % phytotoxicity: 0.00%
[5]; 1 appl, 140 g ai/ha, 43 DAT
  % phytotoxicity: 0.00%
[5]; 1 appl, 140 g ai/ha, 51 DAT
  % phytotoxicity: 0.00%
[5]; 1 appl, 280 g ai/ha, 8 DAT
  % phytotoxicity: 40.00%
[5]; 1 appl, 280 g ai/ha, 14 DAT
  % phytotoxicity: 43.33%
[5]; 1 appl, 280 g ai/ha, 29 DAT
  % phytotoxicity: 0.00%
[5]; 1 appl, 280 g ai/ha, 35 DAT
  % phytotoxicity: 0.00%
[5]; 1 appl, 280 g ai/ha, 43 DAT
  % phytotoxicity: 0.00%
[5]; 1 appl, 280 g ai/ha, 51 DAT
  % phytotoxicity: 0.00%
[5]; 2 appl, 140 g ai/ha, 8 DAT
  % phytotoxicity: 43.33%
[5]; 2 appl, 140 g ai/ha, 14 DAT
  % phytotoxicity: 40.00%
[5]; 2 appl, 140 g ai/ha, 29 DAT
  % phytotoxicity: 0.00%
[5]; 2 appl, 140 g ai/ha, 35 DAT
  % phytotoxicity: 28.33%
[5]; 2 appl, 140 g ai/ha, 43 DAT
  % phytotoxicity: 8.33%
[5]; 2 appl, 140 g ai/ha, 51 DAT
  % phytotoxicity: 1.67%
[5]; 2 appl, 280 g ai/ha, 8 DAT
  % phytotoxicity: 41.67%
[5]; 2 appl, 280 g ai/ha, 14 DAT
  % phytotoxicity: 51.67%
[5]; 2 appl, 280 g ai/ha, 29 DAT
  % phytotoxicity: 0.00%
[5]; 2 appl, 280 g ai/ha, 35 DAT
  % phytotoxicity: 30.00%
[5]; 2 appl, 280 g ai/ha, 43 DAT
  % phytotoxicity: 11.67%
[5]; 2 appl, 280 g ai/ha, 51 DAT
  % phytotoxicity: 5.00%
[6]; 1 appl, 140 g ai/ha, 5 DAT
  % control: 16.67%
[6]; 1 appl, 140 g ai/ha, 13 DAT
  % control: 25.00%
[6]; 1 appl, 140 g ai/ha, 21 DAT
  % control: 33.33%
[6]; 1 appl, 140 g ai/ha, 27 DAT
  % control: 33.33%
[6]; 1 appl, 140 g ai/ha, 35 DAT
  % control: 23.33%
[6]; 1 appl, 140 g ai/ha, 42 DAT
  % control: 16.67%
[6]; 1 appl, 140 g ai/ha, 61 DAT
  % control: 13.33%
[6]; 1 appl, 280 g ai/ha, 5 DAT
  % control: 20.00%
[6]; 1 appl, 280 g ai/ha, 13 DAT
  % control: 36.67%
[6]; 1 appl, 280 g ai/ha, 21 DAT
  % control: 46.67%
[6]; 1 appl, 280 g ai/ha, 27 DAT
  % control: 41.67%
[6]; 1 appl, 280 g ai/ha, 35 DAT
  % control: 38.33%
[6]; 1 appl, 280 g ai/ha, 42 DAT
  % control: 28.33%
[6]; 1 appl, 280 g ai/ha, 61 DAT
  % control: 38.33%
[6]; 2 appl, 140 g ai/ha, 5 DAT
  % control: 16.67%
[6]; 2 appl, 140 g ai/ha, 13 DAT
  % control: 20.00%
[6]; 2 appl, 140 g ai/ha, 21 DAT
  % control: 41.67%
[6]; 2 appl, 140 g ai/ha, 27 DAT
  % control: 33.33%
[6]; 2 appl, 140 g ai/ha, 35 DAT
  % control: 60.00%
[6]; 2 appl, 140 g ai/ha, 42 DAT
  % control: 53.33%
[6]; 2 appl, 140 g ai/ha, 61 DAT
  % control: 8.33%
[6]; 2 appl, 280 g ai/ha, 5 DAT
  % control: 16.67%
[6]; 2 appl, 280 g ai/ha, 13 DAT
  % control: 28.33%
[6]; 2 appl, 280 g ai/ha, 21 DAT
  % control: 46.67%
[6]; 2 appl, 280 g ai/ha, 27 DAT
  % control: 35.00%
[6]; 2 appl, 280 g ai/ha, 35 DAT
  % control: 61.67%
[6]; 2 appl, 280 g ai/ha, 42 DAT
  % control: 61.67%
[6]; 2 appl, 280 g ai/ha, 61 DAT
  % control: 16.67%
[7]; 10 g ai/ha, 4 DAT
  % phytotoxicity: 7.50%
[7]; 10 g ai/ha, 12 DAT
  % phytotoxicity: 0.00%
[7]; 10 g ai/ha, 22 DAT
  % phytotoxicity: 0.00%
[7]; 10 g ai/ha, 33 DAT
  % phytotoxicity: 0.00%
[7]; 10 g ai/ha, 42 DAT
  % phytotoxicity: 0.00%
[7]; 10 g ai/ha, 160 DAT
  % phytotoxicity: 0.00%
[7]; 20 g ai/ha, 4 DAT
  % phytotoxicity: 2.50%
[7]; 20 g ai/ha, 12 DAT
  % phytotoxicity: 0.00%
[7]; 20 g ai/ha, 22 DAT
  % phytotoxicity: 0.00%
[7]; 20 g ai/ha, 33 DAT
  % phytotoxicity: 0.00%
[7]; 20 g ai/ha, 42 DAT
  % phytotoxicity: 0.00%
[7]; 20 g ai/ha, 160 DAT
  % phytotoxicity: 0.00%
[7]; 40 g ai/ha, 4 DAT
  % phytotoxicity: 7.50%
[7]; 40 g ai/ha, 12 DAT
  % phytotoxicity: 0.00%
[7]; 40 g ai/ha, 22 DAT
  % phytotoxicity: 0.00%
[7]; 40 g ai/ha, 33 DAT
  % phytotoxicity: 0.00%
[7]; 40 g ai/ha, 42 DAT
  % phytotoxicity: 0.00%
[7]; 40 g ai/ha, 160 DAT
  % phytotoxicity: 0.00%
[7]; 80 g ai/ha, 4 DAT
  % phytotoxicity: 7.50%
[7]; 80 g ai/ha, 12 DAT
  % phytotoxicity: 0.00%
[7]; 80 g ai/ha, 22 DAT
  % phytotoxicity: 0.00%
[7]; 80 g ai/ha, 33 DAT
  % phytotoxicity: 0.00%
[7]; 80 g ai/ha, 42 DAT
  % phytotoxicity: 0.00%
[7]; 80 g ai/ha, 160 DAT
  % phytotoxicity: 0.00%
[7]; 160 g ai/ha, 4 DAT
  % phytotoxicity: 7.50%
[7]; 160 g ai/ha, 12 DAT
  % phytotoxicity: 0.00%
[7]; 160 g ai/ha, 22 DAT
  % phytotoxicity: 0.00%
[7]; 160 g ai/ha, 33 DAT
  % phytotoxicity: 0.00%
[7]; 160 g ai/ha, 42 DAT
  % phytotoxicity: 0.00%
[7]; 160 g ai/ha, 160 DAT
  % phytotoxicity: 0.00%
